Key:
[1] = tested on: mice given LPS (wild type); assay: LPS-induced serum cytokines in mice exposed to CO; assay type: in vivo, mouse
Description: Animals. Male C57BL/6 and IL-10 (−/−) mice were purchased from Jackson Laboratory (Bar Harbor, Me.), and allowed to acclimate for one week with rodent chow and water ad libitum. The MKK (−/−) mice were generated as previously described [Lu, et al., EMBO J. 18:1845-1857 (1999)]. Wild type littermates were used as controls. All animals were housed in accordance with guidelines from the American Association for Laboratory Animal Care and Research Protocols and were approved by the Animal Care and Use Committee of Yale University School of Medicine. Reagents. All reagents were purchased from Sigma Chemical Co. (St Louis, Mo.) unless specified otherwise. Plasmid Construct. Plasmid pSFFV/HO-1 was constructed by insertion of the rat HO-1 cDNA [Shibahara, et al., Proc. Natl. Acad. Sci. USA. 82: 7865-7869 (1985)] downstream of the Friend spleen focus-forming virus 5′ long-terminal repeat in the mammalian expression vector pSFFV/neo [Fuhlbrigge, et al, Proc. Natl. Acad. Sci. USA. 85: 5649-5653 (1988)] (kindly provided by Stanley Korsmeyer). Transfection. Stable transfections were carried out by the calcium phosphate precipitation technique as previously described [Alam, J., J. Biol. Chem. 269: 25049-25056 (1994)]. Briefly, RAW cells were plated (1×10^6/10 cm plate) and 16 h later, transfected with […] of pSFFV/neo or pSFFV/HO-1. Cells were exposed to the DNA-CaPO4 precipitate for 6 h, shocked by a 1 min treatment with glycerol in phosphate-buffered saline and cultured for an additional 24 h in complete medium before addition of G418. Transfectants were selected over a 3-week period in the presence of G418 (up to […]) and individual clones were isolated by limited dilution. Cell Culture Experimentation. RAW 264.7 mouse peritoneal macrophages were purchased from […] (Rockville, Md.) and primary culture of rat pulmonary vascular smooth muscle cells were harvested from male Sprague Dawley rats (250-300 g) as previously described [Gunther, et al., J. Cell. Biol. 92: 289-298 (1982).]. Both cell types were grown in DMEM containing 10% FBS and gentamicin ([…]) in a humidified atmosphere of 5% CO2/balanced air or 250 ppm CO/5% CO2/balanced air. After a 2 h pretreatment with either CO or air, LPS ([…]) or sterile saline was added to the culture media and the culture plates were returned to the chamber(s). At various time points, cell plates were removed from the chamber to collect media and/or cells for Western analysis. CO Exposures. Mice or macrophages were exposed to compressed air or 250 ppm CO. For cell culture experiments, 5% CO2 was also present for buffering requirements. CO at a concentration of 1% (10,000 ppm) in compressed air was mixed with compressed air with or without CO2 in a stainless steel mixing cylinder before delivery into the exposure chamber. Flow into the 3.70-ft^2 plexiglass animal chamber was maintained at 12 L/min and into the 1.2 ft^2 cell culture chamber at a flow of 2 L/min. The cell culture chamber was humidified and maintained at 37° C. A CO analyzer (Interscan, Chatsworth, Calif.) was used to measure CO levels continuously in the chambers. Gas samples were taken by the analyzer through a port in the top of the chambers at a rate of 1 L/min and analyzed by electrochemical detection, with a sensitivity of 10-600 ppm. Concentration levels were measured hourly and there were no fluctuations in the CO concentrations once the chamber had equilibrated (approximately 5 min). Animal Experimentation. Mice were prebled from the retroorbital sinus (0.25 ml) and then exposed to CO (250 ppm) or room air for 1 h prior to administration of LPS (1 mg/kg, i.p.), E. coli serotype O127:B8. 1 and 16 h thereafter, they were removed from the exposure apparatus individually and a blood sample was obtained via the retroorbital sinus. After the blood collection, the mice were immediately returned to the exposure chamber. […]

JNK = assay: LPS-induced MAP kinase activation, Western blot (JNK); assay type: cell-based, mouse; conditions: RAW 264.7 macrophages, LPS in the presence of CO
Description: Animals. Male C57BL/6 and IL-10 (−/−) mice were purchased from Jackson Laboratory (Bar Harbor, Me.), and allowed to acclimate for one week with rodent chow and water ad libitum. The MKK (−/−) mice were generated as previously described [Lu, et al., EMBO J. 18:1845-1857 (1999)]. Wild type littermates were used as controls. All animals were housed in accordance with guidelines from the American Association for Laboratory Animal Care and Research Protocols and were approved by the Animal Care and Use Committee of Yale University School of Medicine. Reagents. All reagents were purchased from Sigma Chemical Co. (St Louis, Mo.) unless specified otherwise. Plasmid Construct. Plasmid pSFFV/HO-1 was constructed by insertion of the rat HO-1 cDNA [Shibahara, et al., Proc. Natl. Acad. Sci. USA. 82: 7865-7869 (1985)] downstream of the Friend spleen focus-forming virus 5′ long-terminal repeat in the mammalian expression vector pSFFV/neo [Fuhlbrigge, et al, Proc. Natl. Acad. Sci. USA. 85: 5649-5653 (1988)] (kindly provided by Stanley Korsmeyer). Transfection. […] Gas samples were taken by the analyzer through a port in the top of the chambers at a rate of 1 L/min and analyzed by electrochemical detection, with a sensitivity of 10-600 ppm. Concentration levels were measured hourly and there were no fluctuations in the CO concentrations once the chamber had equilibrated (approximately 5 min). […]

Structure (SMILES): [C-]#[O+] [CO, carbon monoxide]
- TNF-α or IL-10 production without LPS ([1]; CO (250 ppm) alone, MKK3(−/−) or wild type(+/+) mice): no effect
- IL-10 in response to LPS in vivo ([1]; LPS 1 mg/kg, mice, CO 250 ppm): augmentation
- EC50 for attenuation of LPS-induced TNF-α production in vivo ([1]; LPS 1 mg/kg, mice, dose-dependent): 69.9 ppm
- LPS-induced TNF-α production in vivo ([1]; LPS 1 mg/kg, mice, in the presence of CO): significant attenuation
- inhibition at 250 ppm ([1]; Mus musculus, wild type controls, LPS, CO 250 ppm, 1 h, read-out: inhibition of serum TNF-α levels): 73%
- LPS-induced serum TNF-α production ([1]; wild type(+/+) littermates, LPS 1 mg/kg, 250 ppm CO): attenuated levels
- LPS-induced IL-10 levels ([1]; wild type(+/+) mice, LPS 1 mg/kg, 250 ppm CO): augmented
- LPS-induced JNK MAP kinase activation (JNK): not affected

Source: US7678390B2, “Carbon monoxide as a biomarker and therapeutic agent” (priority 1999, dated 2010)
